Results taken from patent US7576109B2, “1,3,4-oxadiazol-2-ones as PPAR delta modulators and their use thereof” (Aventis Pharmaceuticals Inc., priority 2004, dated 2009).

System: rat oligodendrocyte cultures
Assay: Primary rat oligodendrocyte differentiation assay (myelin basic protein expression)
Type: cell-based
Conditions: primary rat oligodendrocytes, compared to untreated controls
Excerpt: • 1. Primary rat oligodendrocyte progenitor cells are obtained from the neocortex of newborn (postnatal days 2-3) rats or mice and are enriched, after removal of microglia, by mechanical separation from the astrocytic monolayer using a modification of the technique originally described by McCarthy and de Vellis (1980). • 2. Remove the meninges from neonatal rat brain and mechanically dissociate tissue. Plate cells on T75 flasks and feed cells with DMEM/F12+10% FBS. • 3. Collect oligodendrocytes growing on the astrocyte bed layer by shaking-off method fourteen days after the original prep date. Centrifuge the suspension and resuspend the cell pellet in serum free media (SFM; DMEM combined with 25 μg/ml transferring, 30 nM triiodothyronine, 20 nM hydrocortisone, 20 nM progesterone, 10 nM biotin, 1× trace elements, 30 nM selenium, 1 μg/ml putrescine, 0.1% BSA, 5 U/ml PenStrep, 10 μg/ml insulin) supplemented with the following growth factors: Platelet derived growth factor-AA (PDGF) and fibroblast growth factor-2 (FGF). • 4. Plate the cells on PDL-coated dishes and incubate at 37° C. with 6-7% CO2. • 5. Media components are replaced every 48 hr to keep the cells in a progenitor state. Progenitor Cell Passaging to Increase Cell Numbers for Screening Assays: • 1. When the culture are confluent, rinse the culture with PBS, add trypsin and incubate for ˜2-3 min at 37° C. • 2. Neutralize and centrifuge the cell suspension at 900 g for 5 min. • 3. Resuspend the cell pellet in SFM+PDGF/FGF. • 4. Feed the cells with fresh growth factors every 48 hrs to keep enrich for rapidly dividing progenitor cells. • 5. Cells are passaged no more than 4-5 times prior to experimental assays. • 6. All experiments involving oligodendrocyte progenitor cells were done using cells that were continuously maintained under these conditions. Greater than 95% of all cells were A2B5 immunopositive and expressed 2′3′-cyclic nucleotide 3′-phosphodiesterase II mRNA. • 7. To generate mature oligodendrocytes, 24 h after plating progenitor cells were switched to SFM supplemented with or without IGF-I and grown under these conditions for 7 d prior to experimental assays. • 8. Alternatively, the enriched rat Central Glia-4 (CG4) progenitor cell line may be used, which is maintained in base media (DMEM, with 2 mM glutamine, 1 mM sodium pyruvate, biotin (40 nM), insulin (1 μM) and N1) supplemented with 30% conditioned media from the B-104 neuroblastoma cell line. To induce differentiation, CG4 cells are switched to base media with 1% fetal calf serum (removed after 2 days) and insulin (500 nM). A2B5 and MBP immunoreactivity is used to confirm >95% enrichment in immature and mature cultures, respectively. Rat/Mouse Culture Compound Treatment: • 1. […]

Compound	Fold Increase in Myelin Basic Protein Expression in Oligodendrocyte Differentiation Assay (concentration 10 μM)	Fold Increase in Myelin Basic Protein Expression in Oligodendrocyte Differentiation Assay (concentration 1 μM)
Cc1nc(-c2ccc(C(F)(F)F)cc2)sc1COc1ccc(-c2n[nH]c(=O)o2)cc1 [Example 10, 5-{4-[4-Methyl-2-(4-trifluoromethyl-phenyl)-thiazol-5-ylmethoxy]-phenyl}-3H-[1,3,4]oxadiazol-2-one]	1.5 fold (10)	
CCCCc1nc(-c2ccc(C(F)(F)F)cc2)sc1COc1ccc(-c2n[nH]c(=O)o2)c(Cl)c1 [Example 23]		2 fold (1)
CCCCc1nc(-c2ccc(C(F)(F)F)cc2)sc1COc1ccc(Cc2n[nH]c(=O)o2)cc1 [Example 31, 5-{4-[4-Butyl-2-(4-trifluoromethyl-phenyl)-thiazol-5-ylmethoxy]-benzyl}-3H-[1,3,4]oxadiazol-2-one]		2 fold (1)
Cc1nc(-c2ccc(C(F)(F)F)cc2)sc1COCc1ccc(-c2n[nH]c(=O)o2)cc1 [Example 14]		1.5 fold (1)
